From patent publication US20100168133A1, “USE OF SUBSTITUTED QUINOLINE DERIVATIVES FOR THE TREATMENT OF DRUG RESISTANT MYCOBACTERIAL DISEASES” (priority 2004, published 2010)
In brackets after ≈: the same amount, converted by molar mass. Read-outs that look alike come from different tables or passages of the source.

Tests used:
M. fortuitum = test: In-vitro MIC in solid medium against fluoroquinolone-resistant clinical isolates; type: cell-based; conditions: Mycolicibacterium fortuitum, no mutation indicated, Table 10 1st strain
[1] = test system: M. tuberculosis strain H37Rv; test: In vivo susceptibility of M. tuberculosis to compound 12 in combination with other antimycobacterial agents, lung CFU (Tables 13, 14); design: species or system Swiss mice; conditions: for CFU 1 month (lung) / CFU 2 months (lung): once-a-day group (gavage 5 days/week from day 14), D0 = 7.23; for CFU 1 month (lung): lung CFU after 1 month of treatment; for CFU 2 months (lung): lung CFU after 2 months of treatment; for Decrease 1 mo vs D0 (lung CFU) / Decrease 2 mo vs D0 (lung CFU) / % positive mice 2nd month: once-a-day group; for Decrease 1 mo vs D0 (lung CFU): 1 month of treatment versus D0 (7.23); for Decrease 2 mo vs D0 (lung CFU): 2 months of treatment versus D0 (7.23); for % positive mice 2nd month: culture-positive mice / mice examined after 2 months; for % positive mice / lung CFU*: once-a-week group, after 2 months of treatment; for lung CFU*: by gavage, D0 value 7.23
M. avium = type: cell-based; conditions: M. avium resistant to fluoroquinolones, mutation Ala83Val (Table 9)
[2] = test system: M. tuberculosis H37Rv strain; type: in vivo, Swiss female mice
[3] = […], treatment from day 14, five times weekly, title: 2 months (footnote: four weeks, sacrifice day 42)

SMILES | MIC (M. fortuitum) | CFU 1 month (lung) [1] | CFU 2 months (lung) [1] | Decrease 1 mo vs D0 (lung CFU) [1] | Decrease 2 mo vs D0 (lung CFU) [1] | % positive mice 2nd month [1] | % positive mice [1] | lung CFU* [1] | MIC (M. avium) | Mean CFU (log10) per Lung [2, 3] | Mean CFU (log10) per Spleen [2, 3] | Spleen weight (mean) [2, 3] | Mean CFU (log10) per Lung ([2]; mouse, in vivo) | Mean CFU (log10) per Spleen ([2]; mouse, in vivo) | Spleen weight (mean) ([2]; mouse, in vivo)
CC1COc2c(N3CCN(C)CC3)c(F)cc3c(=O)c(C(=O)O)cn1c23 (stereo not drawn) [Ofloxacin, ofloxacin] | 1 µg/mL (≈ 2.77 µM) | – | – | – | – | – | – | – | – | – | – | – | – | – | –
COc1nc2ccc(Br)cc2cc1[C@@H](c1ccccc1)[C@@](O)(CCN(C)C)c1cccc2ccccc12 [Compound 12, (αS,βR)-6-bromo-α-[2-(dimethylamino)ethyl]-2-methoxy-α-1-naphthalenyl-β-phenyl-3-quinolineethanol] | 0.01 µg/mL (≈ 0.018 µM) | 4.14 | 2.28 | −3.09 | −4.95 | 8/10 | 9/9 | 1.99 +/− 0.75 | 0.007 µg/mL (≈ 0.0126 µM) | 0.22 ± 0.32 log10 | 1.24 ± 0.50 log10 | 248 ± 47 mg | – | – | –
CO[C@H]1/C=C/O[C@@]2(C)Oc3c(C)c(O)c4c(O)c(c(/C=N/N5CCN(C)CC5)c(O)c4c3C2=O)NC(=O)/C(C)=C\C=C\[C@H](C)[C@H](O)[C@@H](C)[C@@H](O)[C@@H](C)[C@H](OC(C)=O)[C@@H]1C [Rifampin, rifampin] | 128 µg/mL (≈ 156 µM) | 6.01 | 4.07 | −1.22 | −3.16 | 10/10 | – | – | 16 µg/mL (≈ 19.4 µM) | – | – | – | 1.89 ± 0.50 log10 | 2.75 ± 0.34 log10 | 391 ± 70 mg
COc1c(N2C[C@@H]3CCCN[C@@H]3C2)c(F)cc2c(=O)c(C(=O)O)cn(C3CC3)c12 [M, moxifloxacin] | – | 5.51 | 4.3 | −1.72 | −2.93 | 10/10 | 7/7 | 6.44 +/− 0.5 | – | 2.89 ± 0.57 log10 | 3.53 ± 0.34 log10 | 400 ± 99 mg | – | – | –
